Measured values as given in US9422297B2, “Tricyclic compounds having cytostatic and/or cytotoxic activity and methods of use thereof” (Duquesne University of the Holy Ghost, priority 2007, dated 2016).

Experiments:
Format in all cases: cell-based
SF-539 = assay: NCI In-Vitro Testing, CNS Cancer
SNB-19 = assay: NCI In-Vitro Testing, CNS Cancer
LOXIMVI = assay: NCI In-Vitro Testing, Melanoma
OVCAR-5 = assay: NCI In-Vitro Testing, Ovarian Cancer
MCF7 = assay: NCI In-Vitro Testing, Breast Cancer
BT-549 = assay: NCI In-Vitro Testing, Breast Cancer

Nc1nc2c(c(Nc3ccc(Cl)cc3)n1)-c1ccccc1C2 [AAG145-136]
GI50 (SF-539): 3.81E−7 Molar | LC50 (SF-539): >1.00E−4 Molar | TGI (SF-539): >1.00E−4 Molar | Percent Growth (SF-539; Log10 Concentration −4.0 Molar): 2% | Percent Growth (SF-539; Log10 Concentration −5.0 Molar): 20% | Percent Growth (SF-539; Log10 Concentration −6.0 Molar): 31% | Percent Growth (SF-539; Log10 Concentration −7.0 Molar): 77% | Percent Growth (SF-539; Log10 Concentration −8.0 Molar): 101% | GI50 (SNB-19): 1.13E−7 Molar | LC50 (SNB-19): >1.00E−4 Molar | TGI (SNB-19): >1.00E−4 Molar | Percent Growth (SNB-19; Log10 Concentration −4.0 Molar): 6% | Percent Growth (SNB-19; Log10 Concentration −5.0 Molar): 17% | Percent Growth (SNB-19; Log10 Concentration −6.0 Molar): 28% | Percent Growth (SNB-19; Log10 Concentration −7.0 Molar): 51% | Percent Growth (SNB-19; Log10 Concentration −8.0 Molar): 100% | GI50 (LOXIMVI): 3.08E−7 Molar | LC50 (LOXIMVI): >1.00E−4 Molar | TGI (LOXIMVI): >1.00E−4 Molar | Percent Growth (LOXIMVI; Log10 Concentration −4.0 Molar): 15% | Percent Growth (LOXIMVI; Log10 Concentration −5.0 Molar): 11% | Percent Growth (LOXIMVI; Log10 Concentration −6.0 Molar): 16% | Percent Growth (LOXIMVI; Log10 Concentration −7.0 Molar): 52% | Percent Growth (LOXIMVI; Log10 Concentration −8.0 Molar): 106% | LC50 (OVCAR-5): >1.00E−4 Molar | TGI (OVCAR-5): >1.00E−4 Molar | Percent Growth (OVCAR-5; Log10 Concentration −4.0 Molar): 58% | Percent Growth (OVCAR-5; Log10 Concentration −5.0 Molar): 47% | Percent Growth (OVCAR-5; Log10 Concentration −6.0 Molar): 56% | Percent Growth (OVCAR-5; Log10 Concentration −7.0 Molar): 77% | Percent Growth (OVCAR-5; Log10 Concentration −8.0 Molar): 96% | GI50 (MCF7): 7.34E−8 Molar | LC50 (MCF7): >1.00E−4 Molar | TGI (MCF7): 1.41E−5 Molar | Percent Growth (MCF7; Log10 Concentration −4.0 Molar): −26% | Percent Growth (MCF7; Log10 Concentration −5.0 Molar): 5% | Percent Growth (MCF7; Log10 Concentration −6.0 Molar): 17% | Percent Growth (MCF7; Log10 Concentration −7.0 Molar): 45% | Percent Growth (MCF7; Log10 Concentration −8.0 Molar): 63% | GI50 (BT-549): 2.83E−6 Molar | LC50 (BT-549): >1.00E−4 Molar | TGI (BT-549): 7.58E−5 Molar | Percent Growth (BT-549; Log10 Concentration −4.0 Molar): −4% | Percent Growth (BT-549; Log10 Concentration −5.0 Molar): 32% | Percent Growth (BT-549; Log10 Concentration −6.0 Molar): 65% | Percent Growth (BT-549; Log10 Concentration −7.0 Molar): 85% | Percent Growth (BT-549; Log10 Concentration −8.0 Molar): 103%
